Results: patent publication US20230111310A1, “CARBOXYLIC ACID DERIVATIVE-SUBSTITUTED IMINO ARYL COMPOUND, PREPARATION METHOD THEREFOR, HERBICIDAL COMPOSITION AND USE THEREOF” (Qingdao Kingagroot Chemical Compound Co., Ltd., priority 2020, published 2023)

tested on: Abutilon theophrasti; assay: Weeding effect in post-emergence stage; assay type: in vivo; details: Dose 15 g/ha; level of fresh weight growth control rate
Outline: (§1)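 Post-emergence spray tower; 2-3 leaf plants (2 wk after sowing, soil pots, greenhouse). Formulation: acetone, Tween 80, methyl oleate EC 1.5 liter/ha as synergist, water. Rates 500–7.5 g/ha. Growth control rate read at 3 wk; n=3, averaged.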

Structure (SMILES) | Weeding effect in post-emergence stage, Abutilon theophrasti
C=CCCOC(=O)[C@@H](C)O/N=C/c1cc(-n2c(=O)n(C)c(=S)n(C)c2=O)c(F)cc1Cl [6(R)] | 5 (Level 5: growth control rate is above 85%)
C[C@@H](O/N=C/c1cc(-n2c(=O)n(C)c(=S)n(C)c2=O)c(F)cc1Cl)C(=O)OCC1CC1 [9(R)] | 5 (Level 5: growth control rate is above 85%)
C[C@@H](O/N=C/c1cc(-n2c(=O)n(C)c(=S)n(C)c2=O)c(F)cc1Cl)C(=O)OCCF [10(R)] | 5 (Level 5: growth control rate is above 85%)
C[C@@H](O/N=C/c1cc(-n2c(=O)n(C)c(=S)n(C)c2=O)c(F)cc1Cl)C(=O)OCCCF [11(R)] | 5 (Level 5: growth control rate is above 85%)

same assay, conditions: Dose 30 g/ha; fresh weight control rate level

Structure (SMILES) | Weeding effect in post-emergence stage, Abutilon theophrasti (level)
COC(=O)C(O/N=C/c1cc(-n2c(=O)cc(C(F)(F)F)n(C)c2=O)c(F)cc1Cl)C1CC1 (racemic) [Compound 456] | 5 (Level 5: growth control rate is above 85%)
COC(=O)C(C)O/N=C/c1cc(-n2c(=O)c(C)c(C(F)(F)F)n(C)c2=O)c(F)cc1Cl (racemic) [Compound 473] | 5 (Level 5: growth control rate is above 85%)

same assay, conditions: Dose 60 g/ha; fresh weight control rate level

Structure (SMILES) | Weeding effect in post-emergence stage, Abutilon theophrasti (level)
COC(=O)C(C)O/N=C/c1cc(-n2c(=O)cc(C(F)(F)F)n(C)c2=S)c(F)cc1C(F)(F)F (racemic) [Compound 395] | 5 (Level 5: growth control rate is above 85%)
COC(=O)C(C)O/N=C/c1cc(-n2c(=O)cc(C(F)(F)F)n(C)c2=S)c(F)cc1C#N (racemic) [Compound 396] | 5 (Level 5: growth control rate is above 85%)

tested on: Alopecurus japonicus; assay: Weeding effect in post-emergence stage; assay type: in vivo; details: Dose 15 g/ha; level of fresh weight growth control rate
Outline: as §1

Structure (SMILES) | Weeding effect in post-emergence stage, Alopecurus japonicus
C=CCCOC(=O)[C@@H](C)O/N=C/c1cc(-n2c(=O)n(C)c(=S)n(C)c2=O)c(F)cc1Cl [6(R)] | 5 (Level 5: growth control rate is above 85%)
C[C@@H](O/N=C/c1cc(-n2c(=O)n(C)c(=S)n(C)c2=O)c(F)cc1Cl)C(=O)OCC1CC1 [9(R)] | 5 (Level 5: growth control rate is above 85%)
C[C@@H](O/N=C/c1cc(-n2c(=O)n(C)c(=S)n(C)c2=O)c(F)cc1Cl)C(=O)OCCF [10(R)] | 5 (Level 5: growth control rate is above 85%)
C[C@@H](O/N=C/c1cc(-n2c(=O)n(C)c(=S)n(C)c2=O)c(F)cc1Cl)C(=O)OCCCF [11(R)] | 5 (Level 5: growth control rate is above 85%)

same assay, conditions: Dose 30 g/ha; fresh weight control rate level

Structure (SMILES) | Weeding effect in post-emergence stage, Alopecurus japonicus (level)
COC(=O)C(O/N=C/c1cc(-n2c(=O)cc(C(F)(F)F)n(C)c2=O)c(F)cc1Cl)C1CC1 (racemic) [Compound 456] | 5 (Level 5: growth control rate is above 85%)
COC(=O)C(C)O/N=C/c1cc(-n2c(=O)c(C)c(C(F)(F)F)n(C)c2=O)c(F)cc1Cl (racemic) [Compound 473] | 5 (Level 5: growth control rate is above 85%)

same assay, conditions: Dose 60 g/ha; fresh weight control rate level

Structure (SMILES) | Weeding effect in post-emergence stage, Alopecurus japonicus (level)
COC(=O)C(C)O/N=C/c1cc(-n2c(=O)cc(C(F)(F)F)n(C)c2=S)c(F)cc1C(F)(F)F (racemic) [Compound 395] | 5 (Level 5: growth control rate is above 85%)
COC(=O)C(C)O/N=C/c1cc(-n2c(=O)cc(C(F)(F)F)n(C)c2=S)c(F)cc1C#N (racemic) [Compound 396] | 5 (Level 5: growth control rate is above 85%)

tested on: Digitaria sanguinalis; assay: Weeding effect in post-emergence stage; assay type: in vivo; details: Dose 15 g/ha; level of fresh weight growth control rate
Outline: as §1

Structure (SMILES) | Weeding effect in post-emergence stage, Digitaria sanguinalis
C=CCCOC(=O)[C@@H](C)O/N=C/c1cc(-n2c(=O)n(C)c(=S)n(C)c2=O)c(F)cc1Cl [6(R)] | 5 (Level 5: growth control rate is above 85%)
C[C@@H](O/N=C/c1cc(-n2c(=O)n(C)c(=S)n(C)c2=O)c(F)cc1Cl)C(=O)OCC1CC1 [9(R)] | 5 (Level 5: growth control rate is above 85%)
C[C@@H](O/N=C/c1cc(-n2c(=O)n(C)c(=S)n(C)c2=O)c(F)cc1Cl)C(=O)OCCF [10(R)] | 5 (Level 5: growth control rate is above 85%)
C[C@@H](O/N=C/c1cc(-n2c(=O)n(C)c(=S)n(C)c2=O)c(F)cc1Cl)C(=O)OCCCF [11(R)] | 5 (Level 5: growth control rate is above 85%)

same assay, conditions: Dose 30 g/ha; fresh weight control rate level

Structure (SMILES) | Weeding effect in post-emergence stage, Digitaria sanguinalis (level)
COC(=O)C(O/N=C/c1cc(-n2c(=O)cc(C(F)(F)F)n(C)c2=O)c(F)cc1Cl)C1CC1 (racemic) [Compound 456] | 5 (Level 5: growth control rate is above 85%)
COC(=O)C(C)O/N=C/c1cc(-n2c(=O)c(C)c(C(F)(F)F)n(C)c2=O)c(F)cc1Cl (racemic) [Compound 473] | 5 (Level 5: growth control rate is above 85%)

same assay, conditions: Dose 60 g/ha; fresh weight control rate level

Structure (SMILES) | Weeding effect in post-emergence stage, Digitaria sanguinalis (level)
COC(=O)C(C)O/N=C/c1cc(-n2c(=O)cc(C(F)(F)F)n(C)c2=S)c(F)cc1C(F)(F)F (racemic) [Compound 395] | 5 (Level 5: growth control rate is above 85%)
COC(=O)C(C)O/N=C/c1cc(-n2c(=O)cc(C(F)(F)F)n(C)c2=S)c(F)cc1C#N (racemic) [Compound 396] | 5 (Level 5: growth control rate is above 85%)

tested on: Eleusine indica; assay: Weeding effect in post-emergence stage; assay type: in vivo; details: Dose 15 g/ha; level of fresh weight growth control rate
Outline: as §1

Structure (SMILES) | Weeding effect in post-emergence stage, Eleusine indica
C=CCCOC(=O)[C@@H](C)O/N=C/c1cc(-n2c(=O)n(C)c(=S)n(C)c2=O)c(F)cc1Cl [6(R)] | 5 (Level 5: growth control rate is above 85%)
C[C@@H](O/N=C/c1cc(-n2c(=O)n(C)c(=S)n(C)c2=O)c(F)cc1Cl)C(=O)OCC1CC1 [9(R)] | 5 (Level 5: growth control rate is above 85%)
C[C@@H](O/N=C/c1cc(-n2c(=O)n(C)c(=S)n(C)c2=O)c(F)cc1Cl)C(=O)OCCF [10(R)] | 5 (Level 5: growth control rate is above 85%)
C[C@@H](O/N=C/c1cc(-n2c(=O)n(C)c(=S)n(C)c2=O)c(F)cc1Cl)C(=O)OCCCF [11(R)] | 5 (Level 5: growth control rate is above 85%)

same assay, conditions: Dose 30 g/ha; fresh weight control rate level

Structure (SMILES) | Weeding effect in post-emergence stage, Eleusine indica (level)
COC(=O)C(O/N=C/c1cc(-n2c(=O)cc(C(F)(F)F)n(C)c2=O)c(F)cc1Cl)C1CC1 (racemic) [Compound 456] | 5 (Level 5: growth control rate is above 85%)
COC(=O)C(C)O/N=C/c1cc(-n2c(=O)c(C)c(C(F)(F)F)n(C)c2=O)c(F)cc1Cl (racemic) [Compound 473] | 5 (Level 5: growth control rate is above 85%)

same assay, conditions: Dose 60 g/ha; fresh weight control rate level

Structure (SMILES) | Weeding effect in post-emergence stage, Eleusine indica (level)
COC(=O)C(C)O/N=C/c1cc(-n2c(=O)cc(C(F)(F)F)n(C)c2=S)c(F)cc1C(F)(F)F (racemic) [Compound 395] | 5 (Level 5: growth control rate is above 85%)
COC(=O)C(C)O/N=C/c1cc(-n2c(=O)cc(C(F)(F)F)n(C)c2=S)c(F)cc1C#N (racemic) [Compound 396] | 5 (Level 5: growth control rate is above 85%)

tested on: Setaria viridis; assay: Weeding effect in post-emergence stage; assay type: in vivo; details: Dose 15 g/ha; level of fresh weight growth control rate
Outline: as §1

Structure (SMILES) | Weeding effect in post-emergence stage, Setaria viridis
C=CCCOC(=O)[C@@H](C)O/N=C/c1cc(-n2c(=O)n(C)c(=S)n(C)c2=O)c(F)cc1Cl [6(R)] | 5 (Level 5: growth control rate is above 85%)
C[C@@H](O/N=C/c1cc(-n2c(=O)n(C)c(=S)n(C)c2=O)c(F)cc1Cl)C(=O)OCC1CC1 [9(R)] | 5 (Level 5: growth control rate is above 85%)
C[C@@H](O/N=C/c1cc(-n2c(=O)n(C)c(=S)n(C)c2=O)c(F)cc1Cl)C(=O)OCCF [10(R)] | 5 (Level 5: growth control rate is above 85%)
C[C@@H](O/N=C/c1cc(-n2c(=O)n(C)c(=S)n(C)c2=O)c(F)cc1Cl)C(=O)OCCCF [11(R)] | 5 (Level 5: growth control rate is above 85%)

same assay, conditions: Dose 30 g/ha; fresh weight control rate level

Structure (SMILES) | Weeding effect in post-emergence stage, Setaria viridis (level)
COC(=O)C(O/N=C/c1cc(-n2c(=O)cc(C(F)(F)F)n(C)c2=O)c(F)cc1Cl)C1CC1 (racemic) [Compound 456] | 5 (Level 5: growth control rate is above 85%)
COC(=O)C(C)O/N=C/c1cc(-n2c(=O)c(C)c(C(F)(F)F)n(C)c2=O)c(F)cc1Cl (racemic) [Compound 473] | 5 (Level 5: growth control rate is above 85%)

same assay, conditions: Dose 60 g/ha; fresh weight control rate level

Structure (SMILES) | Weeding effect in post-emergence stage, Setaria viridis (level)
COC(=O)C(C)O/N=C/c1cc(-n2c(=O)cc(C(F)(F)F)n(C)c2=S)c(F)cc1C(F)(F)F (racemic) [Compound 395] | 5 (Level 5: growth control rate is above 85%)
COC(=O)C(C)O/N=C/c1cc(-n2c(=O)cc(C(F)(F)F)n(C)c2=S)c(F)cc1C#N (racemic) [Compound 396] | 5 (Level 5: growth control rate is above 85%)

tested on: Echinochloa crusgalli; assay: Weeding effect in post-emergence stage; assay type: in vivo; details: Dose 15 g/ha; level of fresh weight growth control rate
Outline: as §1

Structure (SMILES) | Weeding effect in post-emergence stage, Echinochloa crusgalli
C=CCCOC(=O)[C@@H](C)O/N=C/c1cc(-n2c(=O)n(C)c(=S)n(C)c2=O)c(F)cc1Cl [6(R)] | 5 (Level 5: growth control rate is above 85%)
C[C@@H](O/N=C/c1cc(-n2c(=O)n(C)c(=S)n(C)c2=O)c(F)cc1Cl)C(=O)OCC1CC1 [9(R)] | 5 (Level 5: growth control rate is above 85%)
C[C@@H](O/N=C/c1cc(-n2c(=O)n(C)c(=S)n(C)c2=O)c(F)cc1Cl)C(=O)OCCF [10(R)] | 5 (Level 5: growth control rate is above 85%)
C[C@@H](O/N=C/c1cc(-n2c(=O)n(C)c(=S)n(C)c2=O)c(F)cc1Cl)C(=O)OCCCF [11(R)] | 5 (Level 5: growth control rate is above 85%)

same assay, conditions: Dose 30 g/ha; fresh weight control rate level

Structure (SMILES) | Weeding effect in post-emergence stage, Echinochloa crusgalli (level)
COC(=O)C(O/N=C/c1cc(-n2c(=O)cc(C(F)(F)F)n(C)c2=O)c(F)cc1Cl)C1CC1 (racemic) [Compound 456] | 5 (Level 5: growth control rate is above 85%)
COC(=O)C(C)O/N=C/c1cc(-n2c(=O)c(C)c(C(F)(F)F)n(C)c2=O)c(F)cc1Cl (racemic) [Compound 473] | 5 (Level 5: growth control rate is above 85%)

same assay, conditions: Dose 60 g/ha; fresh weight control rate level

Structure (SMILES) | Weeding effect in post-emergence stage, Echinochloa crusgalli (level)
COC(=O)C(C)O/N=C/c1cc(-n2c(=O)cc(C(F)(F)F)n(C)c2=S)c(F)cc1C(F)(F)F (racemic) [Compound 395] | 5 (Level 5: growth control rate is above 85%)
COC(=O)C(C)O/N=C/c1cc(-n2c(=O)cc(C(F)(F)F)n(C)c2=S)c(F)cc1C#N (racemic) [Compound 396] | 5 (Level 5: growth control rate is above 85%)
